Experimental data as given in patent publication US20150240204A1, “METHOD FOR POLYCLONAL STIMULATION OF T CELLS BY MOBILE NANOMATRICES” (MILTENYI BIOTEC GMBH, priority 2012, published 2015).

Assays:
Format in all cases: cell-based, human
[1] = system: naive CD4 and CD8 T cells; assay: Induction of early activation markers CD25/CD69, soluble versus nanomatrix-conjugated CD3
Procedure: (§1) FIG. 6: Comparison of soluble CD3 or CD28 antibodies to CD3 or CD28 antibodies conjugated to nanomatrices. Naive CD4 and CD8 T cells were isolated and stimulated in vitro in the presence of IL-2 using soluble CD3 (0-10000 ng/mL) w/o CD28 (A) or in the presence of soluble CD28 (200 ng/ml) (B) and compared to CD28 conjugated to nanomatrix (200 ng/ml) and analysed for early activation markers CD25/CD69 on day 5 or for expansion (C) on day 7. 2 donors were analysed in duplicates.
IL-2 was added to all cultures. […] In contrast the CD3 coated nanomatrix (100 ng/ml CD3) induced CD25/CD69 expression in 40-70% of the cells.

[2] = system: CD8+ T cell subsets and PBMC from melanoma patients; assay: Fold expansion of MART-1 TCR transduced cultures; conditions: IL2, day 13-15 after stimulation
From the text: CD8^+ T cell subsets from freshly isolated PBMC from melanoma patients were isolated and the stimulated with coated CD3 plus soluble CD28 (CD3+CD28 in the graph) or with CD3/CD28/CD2 coated MACSiBeads (MACSiBeads in the graph) or with CD3/CD28 Nanomatrix in the presence of IL2. After 2 days of stimulation cells have been transduced to express MART-1 TCR. In the graph is reported the fold expansion of each culture at day 13-15 after stimulation.
One important application for activating and expanding T cells and in particular purified cell subsets is their genetic manipulation, e.g. to introduce a certain antigen receptor with specificity for tumor antigens. We have used nanomatrices to activate purified naïve (TN, CD62L+CD45RA+), central memory (TCM, CD62L+CD45RA−) and effector (TEM, CD62L−CD45RA−) T cells and transduced them using a retroviral vector expressing a TCR specific for MART-1, a tumor antigen. To test the relative frequency of transgene expression in these T cell subsets we performed MHC-peptide Class I tetramer staining. All T cell subsets are efficiently transduced (>50%) independent on the stimulatory conditions we tested (FIG. 7). We also compared the in vitro expansion of the transduced T cells. As shown in FIG. 8 after 10 days we observed no differences with regard to expansion of the three subsets under all conditions. […]

naive T cells = assay: Expansion of naive T cells, soluble versus nanomatrix-conjugated CD28 in presence of soluble CD3; conditions: soluble CD3 alone, day 7
Procedure: as §1
We also tested the effect of conjugation of CD28 antibodies to the nanomatrix. Since the effects of costimulation are best visualized under suboptimal CD3 stimulation, we titrated CD28 either soluble or conjugated to the nanomatrix in the presence of soluble CD3 to a culture of naïve T cells. […] In the presence of soluble CD28 however a 2-6 fold expansion was detectable but only at the highest tested dose of CD28 (10000 ng/ml).

soluble CD3: soluble anti-CD3 antibody (CD3 antibodies, clone OKT3)
up-regulation of early activation markers CD25 and CD69 ([1]; 10-10000 ng/ml, without CD28, IL-2, day 5): did not induce any significant up-regulation
CD25/CD69 expression ([1]; highest tested doses 100-10000 ng/ml, with soluble CD28 200 ng/ml, IL-2, day 5): 20-40 % of the cells
fold expansion [2]: 57.61±17.75
expansion of naive T cells (naive T cells): did not induce any expansion
